Data on 3 molecules can be found in patent US20250288634A1, “Fenugreek Formulation for Lowering Blood Glucose and Weight Loss” (priority 2024, published 2025).

The nature of data set [1]: Clinical Case Example #2: regulating blood glucose levels, body weight, tolerability. As to conditions: within just a few days of using, person with type-2 diabetes on metformin. Format: in vivo, human. The protocol:
Clinical Case Example #2: The therapeutic composition (i.e. fenugreek formulation) used in Clinical Case Example #1 above was also tested for efficacy on regulating blood glucose levels. The subject was a person, height of 5 feet 6 inches and with baseline a body weight of about 175 lbs. Despite long-term management of their type-2 diabetes with metformin, they still had blood glucose readings almost continuously in the low to high 200s mg/dL (e.g. 204, 228, 277) with hemoglobin A1C of 7.2%. A typical fasting blood sugar for them was 189.
Due to consistently high blood glucose levels, their endocrinologist prescribed Januvia (sitagliptin, a dipeptidyl peptidase-4 (DPP-4) inhibitor). […]
When sufficiently recovered from the pancreatitis, they started using the fenugreek formulation of this invention (combination of fenugreek, curcumin, and chromium picolinate) while they continued taking metformin. Within a few days of starting the fenugreek formulation, their blood glucose readings declined from well over 200 for most of the day, to around 180, with excursions into the mid-200s only after high-sugar meals (whereas prior to this regimen, their blood glucose was in the 200s at a steady state). Occasionally, while on the fenugreek formulation regimen, they had blood glucose readings down to 110. This was the first time in half a decade that the subject had readings as low as 110. […]

The target of data set [2] is dipeptidyl-peptidase 4 (DPP4) (Homo sapiens, UniProt P27487). Conditions: cited from earlier work.
dipeptidyl-peptidase 4 (DPP4), sequence (P27487 whole entry, species assumed): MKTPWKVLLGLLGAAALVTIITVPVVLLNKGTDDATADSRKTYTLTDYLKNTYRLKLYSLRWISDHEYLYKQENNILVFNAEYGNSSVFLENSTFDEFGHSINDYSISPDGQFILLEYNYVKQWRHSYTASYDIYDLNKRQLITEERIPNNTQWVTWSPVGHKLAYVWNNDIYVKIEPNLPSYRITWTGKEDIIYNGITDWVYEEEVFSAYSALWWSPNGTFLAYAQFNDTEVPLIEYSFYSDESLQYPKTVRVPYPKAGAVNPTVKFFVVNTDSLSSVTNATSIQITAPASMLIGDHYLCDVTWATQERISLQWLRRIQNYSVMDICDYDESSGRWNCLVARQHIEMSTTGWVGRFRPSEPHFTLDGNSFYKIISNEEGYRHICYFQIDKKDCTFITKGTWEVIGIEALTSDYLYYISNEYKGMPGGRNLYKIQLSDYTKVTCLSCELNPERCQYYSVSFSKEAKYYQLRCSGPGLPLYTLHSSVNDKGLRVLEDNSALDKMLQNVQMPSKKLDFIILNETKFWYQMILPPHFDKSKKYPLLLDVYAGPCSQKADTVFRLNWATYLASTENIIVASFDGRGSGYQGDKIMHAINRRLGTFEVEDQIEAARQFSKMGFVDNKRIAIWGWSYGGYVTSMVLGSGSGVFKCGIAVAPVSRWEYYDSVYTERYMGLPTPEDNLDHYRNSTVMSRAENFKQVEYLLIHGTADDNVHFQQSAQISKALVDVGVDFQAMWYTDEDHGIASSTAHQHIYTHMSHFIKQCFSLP
For data set [3] the following is noted: cited from earlier work.

The structures appear in SMILES notation. Like-named read-outs stand apart in the source and are kept apart here.

On to `N[C@@H](CC(=O)N1CCn2c(nnc2C(F)(F)F)C1)Cc1cc(F)c(F)cc1F` [Januvia, sitagliptin], for which, in data set [1], the adverse events result was “diarrhea and signs of acute pancreatitis”.

As for `COc1cc(/C=C/C(=O)CC(=O)/C=C/c2ccc(O)c(OC)c2)ccc1O` [curcumin], in data set [2], the “action on DPP4” value is listed as “inhibits”.

`[Cr]` [chromium]: the safety entry in data set [3] (200-1,000 μg daily for up to two years) and in data set [3] (up to 1,000 μg daily for up to six months) was “used safely” each time.
